Here are results for 4 compounds from patent US9968698B2, “Charged singlet-oxygen sensitizers and oppositely-charged surfactants” (STC.UNM, priority 2013, dated 2018).

In data set [1] the test system is E. coli (ATCC 29425). Nature of the data set: Live/dead flow cytometry biocidal assay with samples UVA pre-irradiated before bacterial exposure, Example 2. The conditions noted are these: for biocidal activity vs. E. coli after pre-irradiation: then 30 minutes UVA with bacteria. It is filed as cell-based, Escherichia coli. The protocol: (§1) All media and buffers were prepared using deionized water with a resistivity exceeding 18 MΩ*cm. Nutrient Broth 234000 (Difco) was prepared according to manufacturer's instructions, and Nutrient Agar was prepared upon the addition of 8 g/L Bacto agar (Difco). Both S. aureus (ATCC 25923) and E. coli (ATCC 29425) were grown from glycerol-preserved stock. The frozen stock aliquots were generated from first-generation cultures of the original ATCC lyophilate, which were grown in Nutrient Broth containing 20% glycerol, and subsequently stored at −70° C. The cells were grown by inoculating the glycerol stock on Difco Nutrient Agar for 24 hours at 37° Celsius. For biocidal testing, S. aureus and E. coli cells were scraped off the agar plate with a flame-sterilized wire and transferred to nutrient broth. Cells were incubated in an Orbital Incubator Shaker (American Instruments, Lafayette, Calif.) at 37° Celsius in nutrient broth with rapid shaking (250 rpm) for 18 hours. Following the 18-hour incubation period, cells were separated from the nutrient broth by two 15-minute centrifugations at 4,400 rpm, each of which was followed by removal of the supernatant and re-suspension in 30 mL 0.85% NaCl.
Flow cytometry was implemented to determine the cell concentration of the 0.85% NaCl-suspended bacterial stock solutions. An Accuri C6 flow cytometer (Becton Dickinson, Franklin Lakes, N.J.) equipped with a blue laser that excites at 488 nm was utilized. Two filters were used: a green fluorescence filter (FL-1: 530 nm) and a red fluorescence filter (FL-3: 670 nm long pass). Two thresholds were used, a primary threshold and a secondary threshold. […] Flow cytometer core size in all experiments was 10 μm, with a flow rate of 14 μL/minute. Using these settings, 20 μL of un-stained stock solution was sufficient for identifying the stock concentration of cells.
For biocidal testing, the stock solution was either diluted or concentrated to 2×10^7 cells/mL. Equal volumes of the sample and bacterial solution were added to glass tubes prior to analysis. Cells were stained with 5 mM SYTO 21 (live stain; Life Technologies, Grand Island, N.Y.) and […] Propidium iodide (dead stain; Life Technologies, Grand Island, N.Y.) for 15-30 minutes prior to flow cytometry anaylsis. An example of the flow cytometry gating scheme for E. coli is shown below, in FIG. 14. […]
(§2) The solid compound OPE 1, as a dichloride salt, was dissolved in filtered water with a resistivity of 18 MΩ*cm to a final concentration of 10 μM. […] Progress of the photolysis was monitored by UV-visible absorption spectroscopy with a Molecular Devices Spectramax M5 spectrophotometer (Molecular Devices, Sunnyvale, Calif.). […]
(In general: A flow cytometer gives signals particle by particle.)

For data set [2], the system named is S. aureus (ATCC 25923). The data set is described as above. Conditions: for biocidal activity vs. S. aureus after pre-irradiation: then 15 minutes UVA with bacteria. In kind it is cell-based, Staphylococcus aureus. The protocol: as §1
Flow cytometry was implemented to determine the cell concentration of the 0.85% NaCl-suspended bacterial stock solutions. An Accuri C6 flow cytometer (Becton Dickinson, Franklin Lakes, N.J.) equipped with a blue laser that excites at 488 nm was utilized. Two filters were used: a green fluorescence filter (FL-1: 530 nm) and a red fluorescence filter (FL-3: 670 nm long pass). Two thresholds were used, a primary threshold and a secondary threshold. […] Flow cytometer core size in all experiments was 10 μm, with a flow rate of 14 μL/minute. […]
as §2

Data set [3] concerns E. coli. Nature of the data set: Confocal fluorescence microscopy of exposed bacteria, Example 2. In kind it is cell-based, Escherichia coli. The conditions noted are these: UVA, versus untreated cells, FIG. 20.
For data set [4], the system named is S. aureus. In words: Confocal microscopy of bacteria irradiated with UVA for 15 minutes, Example 2. Conditions: UVA light for 15 minutes, FIG. 22. In kind it is cell-based, Staphylococcus aureus. On the procedure:
The solid compound OPE 1, as a dichloride salt, was dissolved in filtered water with a resistivity of 18 MΩ*cm to a final concentration of 10 μM. The solution was then exposed to UVA radiation via a Luzchem LZC-ORG photoreactor (Luzchem Research, Ontario, Canada) in a quartz tube or cuvette. This photoreactor was configured with 10 LZC-UVA lamps (>5.3 mW-cm^−2 over 316-400 nm, Luzchem Research, Ontario, Canada) with a fan-powered exhaust to keep a stable temperature and a carousel for homogeneous irradiation of samples. Progress of the photolysis was monitored by UV-visible absorption spectroscopy with a Molecular Devices Spectramax M5 spectrophotometer (Molecular Devices, Sunnyvale, Calif.). Sodium dodecyl sulfate (SDS) was obtained from Sigma Aldrich. For the OPE 1-SDS complexes, 10 μM OPE 1 was mixed with 40 μM SDS, 0.24% of the critical micelle concentration (CMC). S. aureus samples were exposed to a OPE 1-SDS complex where the concentration of SDS was 0.33 mM, as they were much more resilient to killing caused by SDS. Samples were irradiated for 0, 30, 60, and 120 minutes prior to exposure to bacteria. Once exposed to OPE 1 or 1-SDS complex, E. coli and S. aureus samples were irradiated with UVA in the photoreactor for 30 minutes and 15 minutes, respectively.

For data set [5] the following is noted: UVA photolysis under the same conditions, without surfactant; cited from earlier work.
For data set [6] the following is noted: in water; cited from earlier work.
Data set [7] has as its system Escherichia coli (ATCC 29425). Nature of the data set: Biocidal testing by standard plating (colony counts relative to UVA negative control), Example 1. In kind it is cell-based. The conditions noted are these: 40 μM TTAB alone, one hour of exposure, FIG. 5. On the procedure: (§3) All media and buffers were prepared with deionized water with a resistivity of at least 18 MΩ cm. Nutrient broth 234000 (Difco) was prepared according to manufacturer's instructions. Nutrient agar was prepared upon the addition of 8 g/L bacto agar (Difco). Staphylococcus aureus (ATCC 10832) and Escherichia coli (ATCC 29425) were both grown from glycerol-preserved stock which originated from first-generation cultures of original ATCC lyophilates grown in nutrient broth (containing 20% glycerol) and subsequently stored at −70° C. Cells of the aforementioned strains were grown upon the inoculation of glycerol stock on Difco nutrient agar at 37° C. for 24 hours. Cell culture preparation for biocidal testing entailed scraping S. aureus or E. coli colonies off their agar plates and transferring them to nutrient broth for growth. Cells were then incubated in an Orbital Incubator Shaker (American Instruments, Lafayette, Calif.) for 18 h at 37° C. with rapid shaking (250 rpm). Following the incubation period, cells were washed by two 15 min centrifugations at 4,400 rpm; in each case, supernatant was replaced by 30 mL of 0.85% NaCl following pellet formation.
(§4) The bacterial stock solution was either diluted or concentrated to 2×10^7 cells/mL. Samples were diluted by the addition of 0.85% NaCl, while concentrating the sample entailed centrifugation to pellet the cells, followed by removal of the necessary amount of supernatant and subsequent resuspension of the pellet by vortexing. 500 μL of bacterial solution was added to glass vials with 500 μL of sample solution to reach a final volume of 1 mL prior to analysis. Samples tested contained 10 μM OPE, 40 μM TTAB, or both 10 μM OPE and 40 μM TTAB. Biocidal activity under UVA irradiation was determined using a Luzchem LZC-ORG photoreactor (Luzchem Research, Ontario, Canada). This photoreactor was configured with 10 UVA lamps (0.975 mW/cm^2 over 316-400 nm) with a fan-powered exhaust to keep a stable temperature of 28° C. and a rotating carousel for homogeneous irradiation of samples. Samples exposed in the dark were kept at room temperature, 25° C. 70% Ethanol was used as a positive control, and a 60 minute UVA-irradiated sample of bacteria was used as a negative control.
(§5) The results of the live/dead assay were verified by confocal fluorescence microscopy using a Zeiss Confocal microscope with an Ar laser (488 nm) and a HeNe laser ([…]) as excitation sources. Standard plating techniques were utilized to validate flow cytometry data. This entailed pipetting and spreading 50 μL aliquots of diluted, unstained sample, onto nutrient agar plates. The plates were incubated at 37° C. for 18 hours, colonies were counted, and viabilities were calculated relative to the UVA negative control. […]

In data set [8] the test system is Staphylococcus aureus (ATCC 10832). The description is as above. It is filed as cell-based. Conditions: FIG. 4. On the procedure:
as §3, §4, §5

Data set [9] concerns S. aureus. Conditions: reported value, against S. aureus; cited from earlier work.
The test system of data set [10] is E. coli. The conditions noted are these: reported value, against E. coli; cited from earlier work.
The test system of data set [11] is Staphylococcus aureus (ATCC 10832). In words: Live/dead flow cytometry biocidal assay, Example 1. It is filed as cell-based. The conditions noted are these: 60 minutes, 10 μM OPE. The protocol: All media and buffers were prepared with deionized water with a resistivity of at least 18 MΩ cm. Nutrient broth 234000 (Difco) was prepared according to manufacturer's instructions. Nutrient agar was prepared upon the addition of 8 g/L bacto agar (Difco). Staphylococcus aureus (ATCC 10832) and Escherichia coli (ATCC 29425) were both grown from glycerol-preserved stock which originated from first-generation cultures of original ATCC lyophilates grown in nutrient broth (containing 20% glycerol) and subsequently stored at −70° C. Cells of the aforementioned strains were grown upon the inoculation of glycerol stock on Difco nutrient agar at 37° C. for 24 hours. […]
The bacterial stock solution was either diluted or concentrated to 2×10^7 cells/mL. […] Biocidal activity under UVA irradiation was determined using a Luzchem LZC-ORG photoreactor (Luzchem Research, Ontario, Canada). […]
Flow cytometry gating and analysis were carried out as performed in previous studies of biocidal activity of OPEs (see Z. Malik, J. Hanania, Y. Nitzan New trends in photobiology bactericidal effects of photoactivated porphyrins—An alternative approach to antimicrobial drugs, Journal of Photochemistry and Photobiology B: Biology 1990, 5 (3-4), 281-293). […] 100,000 events were recorded in each sample. […]

Where [12] appears, read: 10 μM OPE 1, 30 minutes of UVA irradiation prior to bacterial exposure.
Setting [13] is: 10 μM OPE 1, 2 hours of UVA pre-exposure.
Setting [14] is: 0.33 mM SDS alone, control experiment.

Several values for one entry are separate records, joined by “and”; a condition that tells them apart may be missing. Identical values can stand only once.

For the compound `C[N+](C)(C)CCOc1ccc(C#Cc2ccc(C#Cc3ccc(OCC[N+](C)(C)C)cc3)cc2)cc1` [OPE 1], the “biocidal activity vs. E. coli after pre-irradiation” value in data set [1] (setting [12]) was “significant drop in biocidal activity”; in data set [1] (setting [13]) it was “nearly lost”. Also, the entries for the “biocidal activity vs. S. aureus after pre-irradiation” value in data set [2] (setting [12]) and in data set [2] (setting [13]) were “significant drop in biocidal activity” and “entirely lost”, respectively. Also, in [3], the “filamentous growth of E. coli (stress response)” value was “more likely to undergo filamentous growth than untreated cells”. In data set [4], the “clustering of S. Aureus (stress response)” value is recorded as “clusters of large numbers of cells”. Further, in data set [5], the “time of photolysis until absorbance diminished and fluorescence completely quenched” value is ≤ 2 min.

Take `CCCCCCCCCCCCOS(=O)(=O)[O-].[Na+]` [SDS, sodium dodecyl sulfate]: the “E. coli cells killed” value in [1] (40 μM SDS alone, control experiment) was ~40%. Moreover, in data set [1] (setting [14]), the “effect on E. coli” value is on record as “significant killing”. For the same compound, the “effect on S. aureus” value in [2] (setting [14]) is “viable”. Also, the critical micelle concentration in data set [6] is reported as ~8.3 mM.

Regarding `CCCCCCCCCCCCCC[N+](C)(C)C.[Br-]` [TTAB, tetradecyl trimethylammonium bromide], the E. coli killed in [7] is 56.1% and 56%. The S. aureus killed in [8] (40 μM TTAB alone, one hour of exposure) is 8.7% and 9%. Also, the minimum inhibitory concentration in data set [9] and in [10] was 5 mM each time. The critical micelle concentration in data set [6] is listed as 4.3 mM.

Regarding `O=S(=O)(O)CCCOc1ccc(C#Cc2ccc(C#Cc3ccc(OCCCS(=O)(=O)O)cc3)cc2)cc1` [OPE], the S. aureus killed turned out to be 41.3% in data set [8] (in the dark, 60 minutes, 10 μM OPE (complex: plus 40 μM TTAB)) and 68.1% in data set [8] (in the light (UVA), 60 minutes, 10 μM OPE (complex: plus 40 μM TTAB)). In addition, the figures for the “S. aureus killed (immediate killing by flow cytometry)” value in data set [11] (in the dark) and in data set [11] (under UVA irradiation) were 23.2% and 35.1%, respectively.
